Reference: patent publication US9592225B2, “Crystalline N-[5-(aminosulfonyl)-4-methyl-1,3-thiazol-2-yl]-N-methyl-2-[4-(2-pyridinyl)phenyl]acetamide mono mesylate monohydrate having a specific particle size distribution range and a specific surface area range for use in pharmaceutical formulations” (AICURIS ANTI-INFECTIVE CURES GMBH, priority 2011, dated 2017)

Columns and labels:
[1] = Safety and tolerability in phase I trials; type: in vivo, human; conditions: healthy male volunteers, single and multiple dose, up to the highest dose tested
Procedure: The results were compared with the effective concentration of the free base of N-[5-(aminosulfonyl)-4-methyl-1,3-thiazol-2-yl]-N-methyl-2-[4-(2-pyridinyl)phenyl]acetamide in cell culture and correlated to exposures reached in healthy male volunteers in single and multiple dose phase I trials (see FIGS. 9-13).
(§1) In healthy male volunteers these plasma concentrations were covered by a single dose of 40 mg as free base equivalent to the crystalline mono mesylate monohydrate salt of N-[5-(aminosulfonyl)-4-methyl-1,3-thiazol-2-yl]-N-methyl-2-[4-(2-pyridinyl)phenyl]acetamide (see FIG. 10) and at steady state by daily doses of 25 mg as free base equivalent (see FIG. 11) for 21 days.

HSV = assay: Murine HSV skin infection model; type: in vivo; conditions: oral doses of 5 mg/kg or higher once daily for four days; data not shown
Procedure: To assess the pharmacokinetic/pharmacodynamic profile the effective dose of the free base of N-[5-(aminosulfonyl)-4-methyl-1,3-thiazol-2-yl]-N-methyl-2-[4-(2-pyridinyl)phenyl]-acetamide was validated in a murine HSV skin infection model and associated plasma concentrations were determined (data not shown).
as §1

Thermostability = type: physicochemical; conditions: compared to the mesylate salt
Description: A clear advantage of the N-[5-(aminosulfonyl)-4-methyl-1,3-thiazol-2-yl]-N-methyl-2-[4-(2-pyridinyl)phenyl]acetamide mono mesylate monohydrate, wherein the PSD, PSR and SSA are as defined herein, is its proven long-term stability. Therefore, the inventive N-[5-(aminosulfonyl)-4-methyl-1,3-thiazol-2-yl]-N-methyl-2-[4-(2-pyridinyl)-phenyl]acetamide mono mesylate monohydrate, which is characterized by the PSD, PSR and SSA as disclosed herein, is better suited for the preparation of long-term stable tablets compared to the free base form of N-[5-(aminosulfonyl)-4-methyl-1,3-thiazol-2-yl]-N-methyl-2-[4-(2-pyridinyl)phenyl]acetamide.

[2] = Multiple-dose escalation and steady-state pharmacokinetics in healthy volunteers; type: in vivo, human; conditions: for AUGτ: day 21 steady state, n=12
Description: For the three doses of the mono mesylate monohydrate salt of N-[5-(aminosulfonyl)-4-methyl-1,3-thiazol-2-yl]-N-methyl-2-[4-(2-pyridinyl)phenyl]acetamide in formulation according to example 1, Table 2, wherein the particle size distribution is preferably defined by d(0.1) from 2 to 100 μm, d(0.5) from 30 to 210 μm and d(0.9) from 70 to 400 μm with a specific surface area of the particles less than 1.0 m^2/g, and more preferably defined by d(0.1) from 10 to 75 μm, d(0.5) from 100 to 175 μm, d(0.9) from 200 to 350 μm with a specific surface area of the particles less than 0.3 m^2/g, investigated (5, 25, and 100 mg as free base equivalent; once per day oral administration, […]), the individual concentration-time curves of the free base N-[5-(aminosulfonyl)-4-methyl-1,3-thiazol-2-yl]Nmethyl-2-[4-(2-pyridinyl)phenyl]acetamide at day 1 (after the first administration) were very similar in their general shape and slope to those profiles obtained in the single dose escalation trial (see Example 6).
At steady state, there was a low inter-individual variability of minimal or “trough” concentrations with CVs (coefficient of variations) between 16.7 and 21.7% (day 21). For all doses, the individual and mean concentration-time curves of the free base of N-[5-(aminosulfonyl)-4-methyl-1,3-thiazol-2-yl]-N-methyl-2-[4-(2-pyridinyl)phenyl]acet-amide at day 21 were very similar in their shape and slope to those profiles obtained at day 1.
Table 10: Steady state pharmacokinetic parameters of the free base N-[5-(aminosulfonyl)-4-methyl-1,3-thiazol-2-yl]-N-methyl-2-[4-(2-pyridinyl)phenyl]acetamide at day 21 after daily administrations of 5, 25, or 100 mg as free base equivalent of the mono mesylate monohydrate salt of N-[5-(aminosulfonyl)-4-methyl-1,3-thiazol-2-yl]-N-methyl-2-[4-(2-pyridinyl)phenyl]acetamide in formulation according to example 2, Table 2, wherein the particle size distribution is preferably defined by d(0.1) from 2 to 100 μm, d(0.5) from 30 to 210 μm and d(0.9) from 70 to 400 μm with a specific surface area of the particles less than 1.0 m^2/g, and more preferably defined by d(0.1) from 10 to 75 μm, d(0.5) from 100 to 175 μm, d(0.9) from 200 to 350 μm with a specific surface area of the particles less than 0.3 m^2/g, to healthy volunteers (n=12 per dose).

[3] = Single-dose escalation and pharmacokinetics in human volunteers; type: in vivo
Description: Exposure of the free base form of N-[5-(aminosulfonyl)-4-methyl-1,3-thiazol-2-yl]-N-methyl-2-[4-(2-pyridinyl)-phenyl]acetamide to the human body may be measured by high pressure liquid chromatography (HPLC) by looking at different pharmacokinetic parameters in suitable bodily fluids such as for instance blood plasma and urine, the most common parameters being the Cmax, the so-called area under the curve (AUC), and the terminal half-life (t1/2Z). Hereto, the person skilled in the art understands that said parameters are determined by using adequate bioanalytical methods with adequate sensitivity, specificity, ruggedness, stability and repeatability, as for instance a qualified liquid chromatography triple quad mass spectrometry based method coupled with a suitable extraction method for the separation of the analyte from, e.g. the blood plasma.
Therefore, pharmacokinetic studies in human subjects were undertaken following both single and multiple dose administrations of the crystalline mono mesylate monohydrate salt of N-[5-(aminosulfonyl)-4-methyl-1,3-thiazol-2-yl]-N-methyl-2-[4-(2-pyridinyl)phenyl]-acetamide, wherein the particle size distribution is preferably defined by d(0.1) from 2 to 100 μm, d(0.5) from 30 to 210 μm and d(0.9) from 70 to 400 μm with a specific surface area of the particles less than 1.0 m^2/g, and more preferably defined by d(0.1) from 10 to 75 μm, d(0.5) from 100 to 175 μm, d(0.9) from 200 to 350 μm with a specific surface area of the particles less than 0.3 m^2/g.
Single oral doses of the crystalline mono mesylate monohydrate salt of N-[5-(aminosulfonyl)4methyl1,3thiazol-2-yl]-N-methyl-2-[4-(2-pyridinyl)phenyl]acetamide using the formulations according to example 2, Table 2, were administered to six volunteers per dose step. The overall shape of the plasma concentrations vs. time profiles were similar across all doses (see FIG. 9 and FIG. 12). […]
AUC0-∞: Area under the analyte vs. time concentration from time of administration up to infinity, calculated as
[formula] wherein A0-last is defined as the area under the analyte vs. time concentration up to time of the last qualifiable concentration, calculated by linear up/log down summation and Clast is defined as last quantifiable observed analyte concentration. λz is the apparent terminal elimination rate constant, determined by linear regression of terminal points of In-linear analyte concentration-time curve.
Cmax is the maximal observed analyte concentration and tmax is the time to reach Cmax; t1/2z is defined as the apparent terminal elimination half-life, calculated as
MRT: Mean Residence Time; calculated AUMC divided by AUC, wherein AUMC is the area under the first moment of the concentration-time curve from zero up to ∞ with extrapolation of the terminal phase and AUC is the area under the concentration-time curve from zero up to ∞ with extrapolation of the terminal phase. […]

Row | thermostability (Thermostability) | AUGτ ([2]; human, 5 mg free base equivalent once daily oral) | AUGτ ([2]; human, 25 mg free base equivalent once daily oral) | AUGτ ([2]; human, 100 mg free base equivalent once daily oral) | relation of steady-state exposure (Ctrough, AUCτ, Cmax,ss, Cav) to dose ([2]; human, 5, 25, 100 mg once daily) | relation of AUC0-24 h and Cmax at day 1 to dose ([2]; human, 5, 25, 100 mg, after the first administration) | accumulation ratio R for both AUC and Cmax ([2]; human, all doses applied (5, 25, 100 mg once daily)) | relation of maximum plasma concentrations to dose ([3]; single doses from 5 mg to 400 mg as free base equivalent) | relation of AUC0-∞ to dose ([3]; single doses from 5 mg to 480 mg as free base equivalent) | mean maximum blood plasma concentration (mean Cmax) of the free base ([3]; single oral dose 480 mg as free base equivalent) | AUC0-∞ ([3]; single oral dose 600 mg free base equivalent, mean, n=6) | SMILES | safety and tolerability [1] | suppression of murine HSV skin infection (HSV) | gender-related difference in exposure ([3]; single dose of 80 mg as free base equivalent, after normalization to body weight)
1 |  |  |  |  |  |  |  |  |  |  |  | Cc1nc(N(C)C(=O)Cc2ccc(-c3ccccn3)cc2)sc1S(N)(=O)=O [free base, N-[5-(aminosulfonyl)-4-methyl-1,3-thiazol-2-yl]-N-methyl-2-[4-(2-pyridinyl)phenyl]acetamide] | safe and well tolerated | completely suppressed the murine infection | 
2 | up to 170 °C | 5094 ng·h/mL | 23430 ng·h/mL | 108800 ng·h/mL | dose-proportional increase | dose-proportional increases | ~5 | linearly related to doses | dose-proportional increase | 6921 ± 2190 ng/mL | 320800 ng·h/mL | CS(=O)(=O)O.Cc1nc(N(C)C(=O)Cc2ccc(-c3ccccn3)cc2)sc1S(N)(=O)=O [mono mesylate monohydrate, N-[5-(aminosulfonyl)-4-methyl-1,3-thiazol-2-yl]-N-methyl-2-[4-(2-pyridinyl)-phenyl]acetamide mono methanesulfonic acid monohydrate] |  |  | No clinical relevant gender-related difference
